Measurements: patent publication US6506789B2, “Methods for the treatment of itching comprising administering PGD2 receptor antagonist” (Shionogi & Co., Ltd., priority 1998, dated 2003)
Marks after values point to notes of the source that are not given here.

Experiments:
PGD2 receptor = target: T1, PGD2 receptor (Homo sapiens, UniProt Q13258); assay: Binding to PGD2 receptor ([3H]PGD2, human platelet membrane fraction); conditions: 5 nM [3H]PGD2, 4° C., 90 min, read-out: IC50 (concentration required for 50% inhibition of [3H]PGD2 binding)
T1 construct: The platelets mere homogenized using a homogenizer (Ultra-Turrax) followed by centrifugation 3 times at 20,000 rpm, 10 min at 4° C. to obtain a platelet membrane fraction; from tissue; host or cells: human platelets from venous blood of healthy volunteers (membrane fraction)
T1 sequence (Q13258 1-359): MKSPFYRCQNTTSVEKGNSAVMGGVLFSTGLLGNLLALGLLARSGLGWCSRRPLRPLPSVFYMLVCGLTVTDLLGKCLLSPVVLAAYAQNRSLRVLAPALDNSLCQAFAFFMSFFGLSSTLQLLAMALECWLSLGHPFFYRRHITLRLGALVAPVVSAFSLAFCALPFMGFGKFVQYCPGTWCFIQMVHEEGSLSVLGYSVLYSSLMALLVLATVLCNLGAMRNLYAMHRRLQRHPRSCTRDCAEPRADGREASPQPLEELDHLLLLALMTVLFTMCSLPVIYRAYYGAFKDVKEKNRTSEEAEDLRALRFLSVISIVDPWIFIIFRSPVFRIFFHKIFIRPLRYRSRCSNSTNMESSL
Procedure: (1) Preparation of Human Platelet Membrane Fraction
Blood sample was obtained using a plastic syringe containing 3.8% sodium citrate from the vein of healthy volunteers (adult male and female), put into a plastic test tube and mixed gently by rotation. The sample was then centrifuged at 1800 rpm, 10 min at room temperature and the supernatant containing PRP (platelet-rich plasma) was collected. The PRP was re-centrifuged at 2300 rpm, 22 min at room temperature to obtain platelets. The platelets mere homogenized using a homogenizer (Ultra-Turrax) followed by centrifugation 3 times at 20,000 rpm, 10 min at 4° C. to obtain a platelet membrane fraction. After protein determination, the membrane fraction was adjusted to 2 mg/ml and preserved in a refrigerator at −80° C. until use.
(2) Binding to PGD2 Receptor
To a binding-reaction solution (50 mM Tris/HCl, pH 7.4, 5 mM MgCl2) (0.2 ml) were added the human platelet membrane fraction (0.1 mg) and 5 nM [^3H]PGD2 (115 Ci/mmol). After reacting at 4° C. for 90 min, the mixture was filtered through a glass fiber filter paper and washed several times with cooled saline, to measure the radioactivity retained on the filter paper. The specific binding was calculated by subtracting the non-specific binding (the binding in the presence of 10 μM PGD2) from the total binding. The inhibitory activity of each compound was expressed as the concentration required for 50% inhibition (IC50), which was determined by depicting a substitution curve by plotting the binding ratio (%) in the presence of each compound, where the binding ratio in the absence of a test compound is 100%.

PGD2-induced itching = conditions: guinea pig; J. Pharmacol. Exp. Ther., 279, 137-142, 1996; cited from earlier work
[1] = tested on: itching caused by antigens; conditions: J. Pharmacol. Exp. Ther., 279, 137-142, 1996; cited from earlier work
[2] = tested on: Compound 48/80-induced scratching behavior; assay: Mouse pruritus model: compound 48/80-induced scratching behavior; format: in vivo
Procedure: Investigation on Itch-Related Scratching Behavior in Mouse Pruritus Model: Effect on Compound 48/80-Induced Scratching Behavior Compound 48/80 (10 μg/site, Sigma), a non-immunological mast cell activator, was dissolved in physiological saline and subcutaneously injected into the rostral part of the back of female C57BL mice (8-12 weeks of age, Charles River Japan Inc.). […] Mice usually scratched several times successively in one behavior and a series of scratching was counted as one incidence. Compound Treatment Compound (IA-a-5), suspended in 0.5% methylcellulose, was orally administered 1 hour before the injection of compound 48/80 at a dose of 300 mg/kg. As a control, mice were treated with 0.5% methlycellulose. Results were shown in Table 16. *: P<0.05 versus control (Wilcoxon test).

[3] = tested on: Antigen-induced scratching behavior; assay: Mouse pruritus model: antigen-induced scratching behavior; format: in vivo; conditions: female C57BL mice, observed 15 minutes, n = 7, control 51.6 ± 5.3
Procedure: Investigation on Itch-Related Scratching Behavior in Mouse Pruritus Model: Effect on Antigen-Induced Scratching Behavior 50 μl of diluted anti-benzylpenicilloyl (BPO) IgE monoclonal antibody was intradermally injected to the rostral part of the back skin of female C57BL (Table 17, 8-12 weeks of age, Charles River Japan Inc.) or male DS-Nh (Table 18, 7-8 weeks of age, Aburahi Laboratories, Shionogi & Co., Ltd.) mice. Twenty-four hours later, scratching behavior was induced by intravenously injection of physiological saline containing 1 mg of BPO-guinea pig serum albumin. […] In Table 17, the compound was treated in the same manner described in above 1). In Table 18, the compound were dissolved in physiological saline and intraperitoneally injected 30 minutes before antigen challenge. *: P<0.05, **: P<0.01 versus control (Dunnett's test).

Compound: CC1(C)[C@H]2C[C@H](C/C=C/CCCC(=O)O)[C@@H](NC(=O)c3csc4ccc(O)cc34)[C@@H]1C2 [IA-a-17, (5E)-7-[(1R,2R,3S,5S)-2-(5-hydroxybenzo[b]thiophen-3-yl-carbonylamino)-6,6-dimethylbicyclo[3.1.1]hept-3-yl]-5-heptenoic Acid]
- IC50 (PGD2 receptor): 32 nM

Compound: CC1(C)[C@H]2C[C@@H](C/C=C\CCCC(=O)O)[C@@H](NC(=O)c3csc4ccc(O)cc34)[C@@H]1C2 [IA-c-1]
- IC50 (PGD2 receptor): 28 nM

Compound: CC1(C)[C@H]2C[C@H](NC(=O)c3csc4ccc(F)cc34)[C@@H](C/C=C\CCCC(=O)O)[C@@H]1C2 [IB-a′-2]
- IC50 (PGD2 receptor): 37 nM

Compound: CC1(C)[C@H]2C[C@H](C/C=C\CCCC(=O)O)[C@@H](NC(=O)c3csc4ccc(F)cc34)[C@@H]1C2 [IA-a-11]
- IC50 (PGD2 receptor): 0.27 nM

Compound: CC1(C)[C@H]2C[C@@H](C/C=C/CCCC(=O)O)[C@@H](NC(=O)c3csc4ccc(O)cc34)[C@@H]1C2 [IA-c-2]
- IC50 (PGD2 receptor): 1 nM

Compound: O=C(O)CCCCCCC1C(=O)N(Cc2ccccc2)C(=O)N1NCC(O)C1CCCCC1 (stereo not drawn) [BWA868C]
- inhibition of itching induced by instillation of PGD2 (PGD2-induced itching): inhibited
- inhibition of itching caused by antigens [1]: can not inhibit

Compound: CC1(C)[C@H]2C[C@H](C/C=C/CCCC(=O)O)[C@@H](NC(=O)c3csc4ccc(O)cc34)[C@@H]1C2 (single isomer, unassigned) [IA-a-18]
- IC50 (PGD2 receptor): 1.2 nM

Compound: CC1(C)[C@H]2C[C@H](C/C=C\CCCC(=O)O)[C@@H](NC(=O)c3csc4ccc(O)cc34)[C@@H]1C2 [IA-a-5, (5Z)-7-[(1R,2R,3S,5S)-2-(5-hydroxybenzo[b]thiophen-3-yl-carbonylamino)-6,6-dimethylbicyclo[3.1.1]hept-3-yl]-5-heptenoic acid]
- scratching caused by skin itching derived from the activation of mast cell, compared with the control group ([2]; Experiment 2, summary in words): reduced
- Mean ± S.E. (Number of scratching) ([2]; female C57BL mice, 300 mg/kg orally 1 hour before compound 48/80, observed 30 minutes, n = 10, control 122.2 ± 12.7): 81.8 ± 17.9*
- Mean ± S.E. (Number of scratching) ([3]; 100 mg/kg orally): 48.4 ± 12.4
- Mean ± S.E. (Number of scratching) ([3]; 300 mg/kg orally): 19.6 ± 6.5*
